Read-outs that look alike come from different tables or passages of the source.
Legend:
[1] = system: SW480 colon carcinoma cells; settings: SW480, MTT, 96 h exposure; cited from earlier work
[2] = system: CH1/PA-1 ovarian teratocarcinoma cells; settings: CH1/PA-1, MTT, 96 h exposure; cited from earlier work
[3] = system: A549 non-small cell lung cancer cells; settings: A549, MTT, 96 h exposure; cited from earlier work
[4] = system: CH1/PA-1 ovarian teratocarcinoma cells; experiment: MTT assay (cytotoxicity); type: cell-based, human; settings: CH1/PA-1, MTT, 96 h exposure
Protocol: (§1) CH1/PA-1 ovarian teratocarcinoma cells (provided by L. R. Kelland, CRC Centre for Cancer Therapeutics, Institute of Cancer Research, Sutton, UK; confirmed by STR profiling as PA-1 ovarian teratocarcinoma cells at Multiplexion, Heidelberg, Germany), SW480 colon carcinoma and A549 non-small cell lung cancer cells (both obtained from the American Type Culture Collection, Manassas, VA, USA) were grown as adherent cultures in 75 cm² culture flasks (CytoOne, Starlab, Hamburg, Germany) by using minimal essential medium (MEM) supplemented with 1 mM sodium pyruvate, 4 mM L-glutamine, 1% (v/v) nonessential amino acids from 100-fold stock (all purchased from Sigma-Aldrich) and 10% heat-inactivated fetal bovine serum (BioWest, Nuaillé, France). Cells were maintained under standard culture conditions with 5% CO2 at 37 °C in a humidified atmosphere.
(§2) The 3-(4,5-dimethylthiazol-2-yl)-2,5-diphenyl-2H-tetrazolium bromide (MTT, Acros Organics, Geel, Belgium) assay was used to detect the cytotoxicity of the compounds after 24 h and 96 h incubation. In brief, cells were harvested from culture flasks and the following cell numbers (each in 100 µL) were seeded into 96-well culture plates (CytoOne, tissue culture treated, Starlab, Hamburg, Germany) for 24 h incubation: 1 × 10^4 (CH1/PA-1), 1 × 10^4 (SW480) and 1.5 × 10^4 (A549) cells per well; and for 96 h incubation: 1 × 10^3 (CH1/PA-1), 2 × 10^3 (SW480) and 3 × 10^3 (A549) cells per well. After 24 h, cells resuming their exponential growth rate were treated with test compounds at nine concentrations obtained by serial two-fold dilution. Stock solutions were prepared in DMSO (20 mM or 40 mM) and diluted in supplemented MEM. An amount of 100 µL of each concentration was added to the plates in triplicates and cells were exposed for 24 or 96 h. Afterward, the medium was replaced with 100 µL of MTT solution (5 mg/mL) in phosphate-buffered saline (PBS, Sigma-Aldrich), diluted 1:7 in RPMI 1640 medium (supplemented with 4 mM L-glutamine and 10% heat-inactivated FBS). Upon cell-viability-dependent conversion of the yellow, water-soluble tetrazolium salt into purple formazan products for 4 h, the crystals were dissolved in 150 µL DMSO. The absorbance of the resulting solutions, which is directly proportional to the number of viable cells, was measured at 550 nm (and at 690 nm as a reference) with a microplate reader (ELx808, BioTek, Winoosky, VT, USA) and Gen5TM 3.08 software (BioTek). Blank-corrected optical densities were subjected to graphical evaluation and interpolation of IC50 values. At least three biologically and technically independent experiments were performed.

[5] = system: SW480 colon carcinoma cells; experiment: MTT assay (cytotoxicity); type: cell-based, human; settings: 96 h exposure
Protocol: as §1, §2

[6] = system: A549 non-small cell lung cancer cells; experiment: MTT assay (cytotoxicity); type: cell-based, human; settings: 96 h exposure
Protocol: as §1, §2

Compound | IC50 [1] [µM] | IC50 [2] [µM] | IC50 [3] [µM] | IC50 [4] [µM] | IC50 [5] [µM] | IC50 [6] [µM]
Cc1ccccc1.Cc1ccccc1.[Cl][Ru-]1[Cl+][Ru-]([Cl])[Cl+]1 [[Ru(toluene)Cl2]2] | > 100 | > 100 | > 100 | – | – | –
N.N.O=C([O-])C1(C(=O)[O-])CCC1.[Pt+2] [Carboplatin] | 42 ± 10 | 0.79 ± 0.11 | 38 ± 3 | – | – | –
N.N.[Cl][Pt][Cl] [Cisplatin, reference compound] | – | – | – | 0.073 ± 0.001 | 2.3 ± 0.2 | 3.8 ± 1
O=C1[O][Pt]2([NH][C@@H]3CCCC[C@H]3[NH]2)[O]C1=O [Oxaliplatin] | 0.29 ± 0.05 | 0.18 ± 0.01 | 0.98 ± 0.21 | – | – | –
[Cl][Ru][Cl].[Cl][Ru][Cl].c1ccccc1.c1ccccc1 [[Ru(benzene)Cl2]2] | > 100 | > 100 | > 100 | – | – | –
[Cl][Ru-]1[Cl+][Ru-]([Cl])[Cl+]1.c1ccc2c(c1)CCC2.c1ccc2c(c1)CCC2 [[Ru(indane)Cl2]2] | 166 ± 35 | 51 ± 13 | 257 ± 66 | – | – | –

— publication PMC9699003, “Arene Variation of Highly Cytotoxic Tridentate Naphthoquinone-Based Ruthenium(II) Complexes and In-Depth In Vitro Studies” (Pharmaceutics, 2022)
